Patent publication US10112944B2, “Heterocyclic compounds useful as inhibitors of TNF” (BRISTOL-MYERS SQUIBB COMPANY, priority 2015, dated 2018)

Target: TNFα (Homo sapiens (Human), UniProt P01375)
Test: TNF induced HEK-Blue assay
Format: cell-based
Conditions: HEK-Blue-CD40L cells, TNFα 0.5 ng/ml, NF-κB-driven secreted alkaline phosphatase reporter, 18 h
Method: TNF or CD40L-Induced HEK-Blue Assay
Test compounds serially diluted in DMSO were plated in an assay plate (Labcyte, Cat. #LP-0200) at final concentrations ranging from 0.004 μM to 25 μM. TNFα (final concentration 0.5 ng/ml) or CD40L (final concentration 30 ng/ml) in assay buffer [DMEM, 4.5 g/l glucose (Gibco, Cat. 21063-029), 10% FBS (Sigma, F4135), 1% Penicillin-Streptomycin (Gibco, Cat. 15140-122), 1% Anti-Anti (Gibco, Cat. 15240-112) and 2 mM L-glutamine (Gibco, Cat. 25030-081)] was then added to the assay plate. After a 30 minute pre-incubation at 37° C. and 5% CO2, HEK-Blue-CD40L cells (InvivoGen, Cat. Code hkb-cd40) containing a NF-κB-driven secreted alkaline phosphatase reporter gene were seeded into the assay plate at a density of 20,000 cells per well. This plate was then incubated for 18 h at 37° C. and 5% CO2. Secreted alkaline phosphatase expression was measured using QUANTI-Blue (InvivoGen, Cat. Code rep-qbl) according to manufacturer's specifications and the assay plate was read on a PerkinElmer Envision at 620 nm.
Inhibition data for the test compound over a range of concentrations was plotted as percentage inhibition of the test compound (100%=maximum inhibition). IC50 values were determined after correcting for background [(sample read−mean of low control)/(mean of high control−mean of low control)] where by the low control is DMSO without stimulation and high control is DMSO with stimulation. The IC50 is defined as the concentration of test compound which produces 50% inhibition and was quantified using the 4 parameter logistic equation to fit the data.

Sequence of TNFα (P01375 77-233): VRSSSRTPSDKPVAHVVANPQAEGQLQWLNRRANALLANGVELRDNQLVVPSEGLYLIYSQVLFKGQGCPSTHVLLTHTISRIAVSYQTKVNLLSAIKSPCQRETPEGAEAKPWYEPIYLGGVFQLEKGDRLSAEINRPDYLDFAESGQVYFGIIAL

| Structure (SMILES) | IC50 [µM] |
| --- | --- |
| COc1ccc(-c2cn3c4c(nc3cc2C)CCCN4c2cc(C)ccc2C)cn1 [Example 1, 1-(2,5-Dimethylphenyl)-8-(6-methoxypyridin-3-yl)-7-methyl-1,2,3,4-tetrahydroimidazo [1,2-a:5,4-b′]dipyridine] | 1 to 10 |
| COc1ccc(-c2cn3c4c(nc3cc2C)CCCN4c2ccccc2OC(F)F)cn1 [Example 2, 1-(2-(Difluoromethoxy)phenyl)-8-(6-methoxypyridin-3-yl)-7-methyl-1,2,3,4-tetrahydroimidazo[1,2-a:5,4-b′]dipyridine] | < 1 |
| Cc1ccc(C)c(N2CCCc3nc4cc(C)c(-c5cnn(C)c5)cn4c32)c1 [Example 3, 1-(2,5-Dimethylphenyl)-7-methyl-8-(1-methyl-1H-pyrazol-4-yl)-1,2,3,4-tetrahydroimidazo[1,2-a:5,4-b′]dipyridine] | < 1 |
| Cc1cc2nc3c(n2cc1-c1cnn(C)c1)N(c1ccccc1OC(F)F)CCC3 [Example 4, 1-(2-(Difluoromethoxy)phenyl)-7-methyl-8-(1-methyl-1H-pyrazol-4-yl)-1,2,3,4-tetrahydroimidazo[1,2-a:5,4-b′]dipyridine] | 1 to 10 |
| COc1ccc(-c2ccc3nc4c(n3c2)N(c2cc(C)ccc2C)CCC4)cn1 [Example 5, 1-(2,5-Dimethylphenyl)-8-(6-methoxypyridin-3-yl)-1,2,3,4-tetrahydroimidazo [1,2-a:5,4-b′]dipyridine] | < 1 |
| COc1ccc(-c2ccc3nc4c(n3c2)N(c2ccccc2OC(F)F)CCC4)cn1 [Example 6, 1-(2-(Difluoromethoxy)phenyl)-8-(6-methoxypyridin-3-yl)-1,2,3,4-tetrahydroimidazo[1,2-a:5,4-b′]dipyridine] | < 1 |
| COc1ccc(-c2ccc3nc4c(n3c2)N(c2cc(C)ccc2OC)CCC4)cn1 [Example 7, 1-(2-Methoxy-5-methylphenyl)-8-(6-methoxypyridin-3-yl)-1,2,3,4-tetrahydroimidazo [1,2-a:5,4-b′]dipyridine] | < 1 |
| COc1ccc(-c2ccc3nc4c(n3c2)N(c2nccc3ccccc23)CCC4)cn1 [Example 8, 1-(Isoquinolin-1-yl)-8-(6-methoxypyridin-3-yl)-1,2,3,4-tetrahydroimidazo [1,2-a:5,4-b′]dipyridine] | 1 to 10 |
| COc1ccc(-c2ccc3nc4c(n3c2)N(c2ccccc2C)CCC4)cn1 [Example 9, 8-(6-Methoxypyridin-3-yl)-1-(o-tolyl)-1,2,3,4-tetrahydroimidazo[1,2-a:5,4-b′]dipyridine] | < 1 |
| COc1ccc(-c2ccc3nc4c(n3c2)N(c2ccccc2OC(F)(F)F)CCC4)cn1 [Example 10, 8-(6-Methoxypyridin-3-yl)-1-(2-(trifluoromethoxy)phenyl)-1,2,3,4-tetrahydroimidazo[1,2-a:5,4-b′]dipyridine] | < 1 |
| COc1ccc(-c2ccc3nc4c(n3c2)N(c2cc(C(F)(F)F)ccc2C)CCC4)cn1 [Example 11, 8-(6-Methoxypyridin-3-yl)-1-(2-methyl-5-(trifluoromethyl)phenyl)-1,2,3,4-tetrahydroimidazo[1,2-a:5,4-b′]dipyridine] | 1 to 10 |
| Cc1ccc(C)c(N2CCCc3nc4ccc(-c5cnn(C)c5)cn4c32)c1 [Example 12, 1-(2,5-Dimethylphenyl)-8-(1-methyl-1H-pyrazol-4-yl)-1,2,3,4-tetrahydroimidazo [1,2-a:5,4-b′]dipyridine] | < 1 |
| Cn1cc(-c2ccc3nc4c(n3c2)N(c2ccccc2OC(F)F)CCC4)cn1 [Example 13, 1-(2-(Difluoromethoxy)phenyl)-8-(1-methyl-1H-pyrazol-4-yl)-1,2,3,4-tetrahydroimidazo[1,2-a:5,4-b′]dipyridine] | < 1 |
| Cc1ccc(C)c(N2CCCc3nc4ccc(-c5cnc(N6CCOCC6)nc5)cn4c32)c1 [Example 14, 4-(5-(1-(2,5-Dimethylphenyl)-1,2,3,4-tetrahydroimidazo[1,2-a:5,4-b′]dipyridin-8-yl)pyrimidin-2-yl)morpholine] | < 1 |
